Assay results published in the supplement of paper PMC10307832.

Legend:
Test in all cases: relative viability (nuclei count vs DMSO), 5 days (fraction); higher = more cells survive
MK-8033 + Navitoclax = compound: Cn1cc(-c2cnc3ccc4ccc(CS(=O)(=O)NCc5ccccn5)cc4c(=O)c3c2)cn1 [MK-8033] + CC1(C)CCC(c2ccc(Cl)cc2)=C(CN2CCN(c3ccc(C(=O)NS(=O)(=O)c4ccc(N[C@H](CCN5CCOCC5)CSc5ccccc5)c(S(=O)(=O)C(F)(F)F)c4)cc3)CC2)C1 [Navitoclax] (partner 0.5 µM)
In short: (§1)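 Lung cancer cell lines in 1536-well plates got either a single drug or a fixed anchor-drug dose together with five library-drug doses (not always all listed) in √10 steps, by pin tool, on the day after seeding. Nuclei were counted after 5 days, and relative viability is the treated-to-vehicle ratio of nuclei counts. Values are medians of duplicate plates.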

Irinotecan + Tozasertib = compound: CCc1c2c(nc3ccc(OC(=O)N4CCC(N5CCCCC5)CC4)cc13)-c1cc3c(c(=O)n1C2)COC(=O)[C@]3(O)CC [Irinotecan] + Cc1cc(Nc2cc(N3CCN(C)CC3)nc(Sc3ccc(NC(=O)C4CC4)cc3)n2)n[nH]1 [Tozasertib] (partner 0.1 µM)
In short: as §1

RU-SKI 43 + Alpelisib = compound: CC[C@@H](C)CNCC(=O)N1CCC2=C([C@@H]1COC3=CC=CC(=C3)C)C=CS2 [RU-SKI 43] + Cc1nc(NC(=O)N2CCC[C@H]2C(N)=O)sc1-c1ccnc(C(C)(C)C(F)(F)F)c1 [Alpelisib] (partner 2 µM)
In short: as §1

MK-8033 + AZD7762 = compound: Cn1cc(-c2cnc3ccc4ccc(CS(=O)(=O)NCc5ccccn5)cc4c(=O)c3c2)cn1 [MK-8033] + NC(=O)Nc1cc(-c2cccc(F)c2)sc1C(=O)N[C@H]1CCCNC1 [AZD7762] (partner 0.2 µM)
In short: as §1

| Cell Line | relative viability (MK-8033 + Navitoclax; first compound 0.02 µM) | relative viability (MK-8033 + Navitoclax; first compound 0.06325 µM) | relative viability (MK-8033 + Navitoclax; first compound 0.2 µM) | relative viability (MK-8033 + Navitoclax; first compound 0.6325 µM) | relative viability (MK-8033 + Navitoclax; first compound 2 µM) | relative viability (Irinotecan + Tozasertib; first compound 0.6325 µM) | relative viability (Irinotecan + Tozasertib; first compound 2 µM) | relative viability (Irinotecan + Tozasertib; first compound 6.325 µM) | relative viability (Irinotecan + Tozasertib; first compound 20 µM) | relative viability (RU-SKI 43 + Alpelisib; first compound 0.1 µM) | relative viability (RU-SKI 43 + Alpelisib; first compound 0.3162 µM) | relative viability (RU-SKI 43 + Alpelisib; first compound 1 µM) | relative viability (RU-SKI 43 + Alpelisib; first compound 3.162 µM) | relative viability (RU-SKI 43 + Alpelisib; first compound 10 µM) | relative viability (MK-8033 + AZD7762; first compound 0.02 µM) | relative viability (MK-8033 + AZD7762; first compound 0.06325 µM) | relative viability (MK-8033 + AZD7762; first compound 0.2 µM) | relative viability (MK-8033 + AZD7762; first compound 0.6325 µM) | relative viability (MK-8033 + AZD7762; first compound 2 µM) |
| --- | --- | --- | --- | --- | --- | --- | --- | --- | --- | --- | --- | --- | --- | --- | --- | --- | --- | --- | --- |
| NCI-H2023 | 1.08 | 0.881 | 0.933 | 0.943 | 0.847 | 0.355 | 0.408 | 0.205 | 0.104 | 0.62 | 0.722 | 0.6 | 0.605 | 0.521 | – | – | – | – | – |
| PC-14 | 0.96 | 0.944 | 0.987 | 1.06 | 1.02 | – | 0.51 | 0.19 | 0.174 | 0.9 | 0.91 | 1.04 | 0.938 | 0.956 | 0.357 | 0.296 | 0.351 | 0.302 | 0.354 |
| ChaGo-K-1 | 1.2 | 0.962 | 0.945 | 1.04 | 0.922 | 0.216 | 0.205 | 0.193 | 0.218 | – | – | – | – | – | 0.872 | 0.921 | 0.857 | 0.932 | 0.82 |
| NCI-H650 | – | – | – | – | – | 0.703 | 0.553 | 0.202 | 0.181 | 1.14 | 0.981 | 1.12 | – | 1.07 | 0.947 | 0.997 | 0.982 | 0.945 | 0.985 |
| EBC-1 | 0.428 | 0.383 | 0.474 | 0.404 | 0.13 | – | – | – | – | 0.784 | 0.92 | 0.925 | 0.799 | 0.68 | – | – | – | – | – |
| NCI-H2228 | 1.37 | 0.876 | 0.754 | 0.54 | 0.839 | 0.259 | 0.31 | 0.348 | 0.287 | 0.667 | 0.768 | 1.08 | 0.704 | 0.423 | – | – | – | – | – |
| NCI-H1703 | 0.967 | 1.08 | 0.988 | 1.12 | 0.924 | – | – | – | – | 0.329 | 0.31 | 0.338 | 0.339 | 0.239 | 0.109 | 0.117 | 0.124 | 0.108 | 0.12 |
| 201T | 1.26 | 1.19 | 1.21 | 1.16 | 1.2 | – | 0.682 | 0.402 | 0.318 | 1.08 | 1.01 | 0.984 | 1.03 | 1.01 | 0.7 | 0.481 | 0.607 | 0.683 | 0.618 |
| NCI-H1915 | 0.812 | 0.699 | 0.801 | 0.811 | 0.783 | 0.312 | 0.27 | 0.192 | 0.173 | 0.991 | 1.14 | 1.12 | 1.05 | 1.04 | 0.671 | 0.627 | 0.684 | 0.681 | 0.711 |
| NCI-H358 | – | – | – | – | – | 0.104 | 0.141 | 0.145 | 0.128 | 0.795 | 0.894 | 0.781 | 0.634 | 0.858 | 0.541 | 0.347 | 0.431 | 0.428 | 0.458 |
| NCI-H2009 | 1.16 | 1.12 | 1.08 | 1.15 | 1.14 | 0.599 | 0.566 | 0.334 | 0.13 | 1.18 | 1.3 | 1.2 | 1.15 | 1.13 | – | – | – | – | – |
| COR-L 105 | 0.689 | 0.777 | 0.779 | 0.694 | 0.906 | 0.346 | 0.373 | 0.458 | 0.273 | 0.935 | 0.818 | 0.931 | 0.916 | 0.921 | – | – | – | – | – |
| COR-L23 | 0.938 | 0.88 | 0.948 | 1.01 | 0.885 | 0.161 | 0.225 | 0.176 | 0.105 | 0.87 | 0.657 | 0.725 | 0.757 | 0.815 | – | – | – | – | – |
| NCI-H520 | 1.14 | 1.03 | 1.02 | 1.06 | 0.975 | 0.446 | 0.514 | 0.445 | 0.427 | 0.968 | 1.01 | 1.09 | 0.918 | 0.793 | – | – | – | – | – |
| SW 900 | – | – | – | – | – | 0.379 | 0.528 | 0.439 | 0.485 | – | – | – | – | – | 0.575 | 0.487 | 0.564 | 0.621 | 0.498 |
| NCI-H1650 | 1.21 | 1.13 | 1.11 | 1.11 | 1.18 | – | 0.423 | 0.366 | 0.211 | – | – | – | – | – | – | – | – | – | – |
| A549 | 1.22 | 1.13 | 1.16 | 1.19 | 1.14 | – | – | – | – | 0.991 | 0.957 | 0.738 | 0.772 | 0.621 | – | – | – | – | – |
| NCI-H1563 | – | – | – | – | – | – | – | – | – | 0.862 | 0.925 | 0.903 | 0.853 | 0.862 | – | – | – | – | – |
| NCI-H1623 | – | – | – | – | – | 0.343 | 0.34 | 0.227 | 0.227 | – | – | – | – | – | – | – | – | – | – |
| SK-MES-1 | 1.23 | 1.16 | 1.16 | 1.23 | 1.18 | 0.659 | 0.473 | 0.248 | 0.151 | 0.893 | 0.879 | 1.01 | 1.15 | 0.892 | – | – | – | – | – |
| SW 1573 | 0.721 | – | 0.991 | 0.884 | 0.95 | 0.152 | 0.311 | 0.183 | 0.155 | 0.884 | 0.937 | 0.695 | 0.793 | 0.637 | – | – | – | – | – |
| IA-LM | 0.712 | 0.618 | 0.907 | 0.912 | 0.696 | – | – | – | – | 1.02 | 0.795 | 0.902 | 0.91 | 0.694 | – | – | – | – | – |
| NCI-H2342 | – | – | – | – | – | 0.488 | 0.528 | 0.445 | 0.372 | – | – | – | – | – | 0.636 | 0.438 | 0.454 | 0.454 | 0.646 |
| NCI-H1792 | 0.826 | 0.649 | 0.593 | 0.61 | 0.653 | – | – | – | – | 0.574 | 1.1 | 0.736 | 0.886 | 0.735 | 0.582 | 0.502 | 0.617 | 0.7 | 0.515 |
| NCI-H661 | – | – | – | – | – | 0.372 | 0.372 | 0.469 | 0.333 | 0.647 | 0.668 | 0.846 | 0.464 | 0.404 | – | – | – | – | – |
